Reference: patent publication US20030106108A1, “Genetic transformation method for zoysiagrass” (priority 2001, published 2003)

Columns and labels:
zoysiagrass type 1 calli = experiment: Growth of type 1 calli on MS media with combinations of 2,4-D and BA; type: cell-based, Zoysia japonica Steud.; details: for Callus fresh weight, Total / Callus fresh weight, Type 1 / Callus fresh weight, Type 2 / Callus fresh weight, Type 3 / Callus fresh weight, Type 4: BA 0 mg/l, 5 weeks, dark, 28° C., mean of ten calli
Description: To investigate morphological changes occurring on type 1 calli subculturing, type 1 calli were transferred to a MS medium containing various hormonal combinations of 2,4-D (1, 2, 4, and 8 mg/liter) and BA (0, 0.01, and 0.1 mg/liter) in the dark. After five weeks of subculturing in the dark, four callus types were observed. Each callus type was weighed, and the weight ratios were calculated. Calli of types 2, 3, and 4 were also examined in an identical way as with type 1 callus.
Ten mg of type 1 calli was grown on MS media with various combinations of 2,4-D and BA and 2 g/liter gelrite for 5 weeks in the dark at 28° C. Each value represents a mean calculated from ten calli. Callus morphologies were rated by; 1=whitish-yellow, compact and non-friable, 2=white, compact and friable, 3=yellow, compact and very friable, 4=translucent, soft and watery.

zoysiagrass calli = type: cell-based, Zoysia japonica Steud.
Description: Acetosyringone was prepared by dissolving an appropriate amount of powder in dimethyl sulfoxide at a concentration of 100 mg/ml and stored at 4° C. in the dark. It was added to the sterile medium to an appropriate final concentration whenever required. The calli proliferated on the MSCG4 medium were immersed in the Agrobacterial cell suspension for 1 min. After dehydration on sterile filter paper, the calli were cultivated on a co-cultivation medium (MSAS) with 4 mg/liter 2,4-D at 26±1° C. in the dark for 15 days. After co-cultivation, the calli were thoroughly washed by vortexing in sterile double-distilled water supplemented with a surfactant (0.02% pluronic F68) until the washing solution becomes transparent and finally washed in sterile double-distilled water containing 1000 mg/liter calbenicillin and 0.02% surfactant. After washing, an half of the calli were used for GUS activity assay by the method described by Schenk et al. (1998).
Several factors were tested to optimize transformation efficiency. (1) For comparison of different callus types on invasiveness, types 1, 2 and 3 calli were co-cultivated on 2,4-D-free MSAS media for 6 days; (2) For comparison of co-cultivation periods, calli were co-cultivated for 3, 6, 9, 12, 15, 18, 21, 24 and 27 days; (3) For examination of media components, different amounts of 2,4-D (0, 1, 2, 4, and 8 mg/liter), CaCl2 (0, 11, 110, 220, and 440 mg/liter), and acetosyringone (0, 10, 50, 100, and 200 mg/liter) were added to the MSAS media.

Agrobacterial cell = experiment: Agrobacterium elimination in shoot induction media; type: cell-based, Agrobacterium tumefaciens; details: 125 mg/liter calbenicillin-containing media
Description: The optimized conditions for the A. tumefaciens infection of zoysiagrass calli included the use of type 3 calli as donor, a co-cultivation period of 9 days, the exclusion of 2,4-D and CaCl2 from the media, and the use of 100 mg/l acetosyringone. After pGPTV-HB co-cultivation, calli were transferred to filter paper-laid MSCG media and cultured for 2-4 weeks in the dark. The calli were then transferred to filter paper-laid MSSI medium for shoot induction. Various concentrations (125, 250, and 500 mg/liter) of calbenicillin were added to the shoot induction medium. Induced shoots were subsequently transferred to the MSRS medium for rooting and selection for 4 weeks. Five mg/liter bialaphos and 10 mg/liter hygromycin were used for selection of bialaphos- and hygromycin-resistant plantlets. The rooting plants on the selection medium were transferred to the MSPG medium without antibiotics and bialaphos and further grown. The fully grown plants were then transferred to a pot containing soil and grown in an environmentally controlled growth chamber set at 30° C., 80% relative humidity and 18-hour photoperiod with 30 μmolm^−2s^−1 irradiance provided by cool white fluorescent tubes. When the roots developed enough, pots were transferred to green house. […]

Question: For `c1ccc(CNc2ncnc3[nH]cnc23)cc1` [BA], which “Reduction of incidence rate of non-regenerable type 4 calli” value (zoysiagrass type 1 calli; addition of 0.01 mg/liter BA in combination with 2,4-D) is on record?
Answer: 1.8-3.4 times

Question: How did the “Number of GUS blue spots per 1 g fresh weight calli, effect of CaCl2” value (zoysiagrass calli; CaCl2 0, 11, 110, 220, 440 mg/liter in co-cultivation medium) turn out when `[Ca+2].[Cl-].[Cl-]` [CaCl2] was run?
Answer: decreased as the CaCl2 concentration increased

Question: For `CC1(C)S[C@@H]2[C@H](NC(=O)C(C(=O)O)c3ccccc3)C(=O)N2[C@H]1C(=O)O` (stereo partly shown) [calbenicillin], which “Agrobacterial cell contamination of media” value (Agrobacterial cell) is on record?
Answer: sometimes observed

Question: Which results are given for `COc1cc(C(C)=O)cc(OC)c1O` [acetosyringone]?
Answer: Increase of the number of blue spots (factor) (zoysiagrass calli; 50 mg/liter acetosyringone in co-cultivation medium vs acetosyringone-free medium): 9; Transformation efficiency (zoysiagrass calli; 30˜70 mg/liter acetosyringone during co-cultivation): greatly enhanced; Effect on the transformation (zoysiagrass calli; higher than 100 mg/liter acetosyringone): negative effect

Question: For `O=C(O)COc1ccc(Cl)cc1Cl` [2,4-D, 2,4-dichlorophenoxyacetic acid], which “Number of GUS blue spots per 1 g fresh weight of calli, effect of 2,4-D” value (zoysiagrass calli; 2,4-D 0, 1, 2, 4, 8 mg/liter in co-cultivation medium, 9 days of co-cultivation) is on record?
Answer: decreased as the 2,4-D concentration increased

Question: And the “Callus fresh weight, Total” value (zoysiagrass type 1 calli; 2,4-D 1 mg/l)?
Answer: 81.5 mg

Question: What about the “Callus fresh weight, Type 1” value (zoysiagrass type 1 calli; 2,4-D 1 mg/l) of the same molecule?
Answer: 45.8 mg

Question: What about the “Callus fresh weight, Type 2” value (zoysiagrass type 1 calli; 2,4-D 1 mg/l) of the same molecule?
Answer: 22.3 mg

Question: And the “Callus fresh weight, Type 3” value (zoysiagrass type 1 calli; 2,4-D 1 mg/l)?
Answer: 0 mg

Question: And the “Callus fresh weight, Type 4” value (zoysiagrass type 1 calli; 2,4-D 1 mg/l)?
Answer: 13.4 mg

Question: And the “Callus fresh weight, Total” value (zoysiagrass type 1 calli; 2,4-D 2 mg/l)?
Answer: 37.0 mg

Question: And the “Callus fresh weight, Type 1” value (zoysiagrass type 1 calli; 2,4-D 2 mg/l)?
Answer: 18.8 mg

Question: What about the “Callus fresh weight, Type 2” value (zoysiagrass type 1 calli; 2,4-D 2 mg/l) of the same molecule?
Answer: 2.3 mg

Question: And the “Callus fresh weight, Type 3” value (zoysiagrass type 1 calli; 2,4-D 2 mg/l)?
Answer: 1.5 mg

Question: What about the “Callus fresh weight, Type 4” value (zoysiagrass type 1 calli; 2,4-D 2 mg/l) of the same molecule?
Answer: 14.5 mg

Question: And the “Callus fresh weight, Total” value (zoysiagrass type 1 calli; 2,4-D 4 mg/l)?
Answer: 29.6 mg

Question: And the “Callus fresh weight, Type 1” value (zoysiagrass type 1 calli; 2,4-D 4 mg/l)?
Answer: 11.4 mg

Question: And the “Callus fresh weight, Type 2” value (zoysiagrass type 1 calli; 2,4-D 4 mg/l)?
Answer: 0 mg

Question: What about the “Callus fresh weight, Type 3” value (zoysiagrass type 1 calli; 2,4-D 4 mg/l) of the same molecule?
Answer: 0.9 mg

Question: And the “Callus fresh weight, Type 4” value (zoysiagrass type 1 calli; 2,4-D 4 mg/l)?
Answer: 17.2 mg
